By IC50 is commonly meant the concentration at which inhibition is half-maximal.

Holding throughout (format): binding
The target of experiment [1] is T1, Cq-FABP (Cherax quadricarinatus, UniProt L0I6Z9). Description: Steady-state FRET between the single Trp (W49) and ANS, Trp quenching and recovery by PA. Particulars: read-out: Kd,PA. As for the experimental part: Fluorescence emission spectra were measured at 25°C on a Cary-Eclipse spectrofluorimeter (Varian, CA, USA) equipped with a thermostated cell holder, using solutions (70 µl) placed in microcuvettes (pathlength, 0.3 cm). The binding of non-fluorescent fatty acids (PA, OA, LA, EPA and DHA) to Cq-FABP was measured indirectly by equilibrium displacement experiments using ANS as a fluorescent probe, either by measuring the fluorescence emission of ANS or by measuring the FRET between tryptophan and ANS, resulting in the quenching of donor fluorescence. The excitation wavelength was then set at 296 or 350 nm for tryptophan or ANS, respectively; the slit widths and PMT voltage were adjusted to optimize the fluorescence signal at 25°C. For titration experiments, the fluorescence emission spectrum of tryptophan or ANS was measured and the integrated fluorescence signal of tryptophan (315–360 nm) or ANS (440–600 nm) was calculated. For samples containing high concentrations of ANS, the inner-filter effect was not negligible and was corrected. UV-visible absorption spectra were carried out on a Uvikon XL spectrophotometer.

For experiment [2], the target named is T1, Cq-FABP. Description: Time-resolved Trp fluorescence lifetime (single-photon counting) with ANS and PA. The following applies: for FRET efficiency: from lifetimes. As for the experimental part:
The distribution of fluorescence lifetimes of tryptophan was determined by monitoring the intensity decay, I(t), using the single-photon counting technique [27]–[31]. Briefly, the excitation light pulse source was a Ti:sapphire laser (Mai Tai femtosecond laser, Spectra Physics, Mountain View, CA, USA) associated with a third harmonic generator tuned to 296 nm. The laser frequency was reduced from 80 to 8 MHz using a pulse picker (Spectra Physics). Fluorescence emission was detected by a microchannel plate photomultiplier (Hamamatsu model R3809U-05) through a monochromator (ARC SpectraPro-150) set at 340 nm (Δλ = 15 nm) with the emission polarizer set at the magic angle (54.7°). A time-correlated single-photon counting SPC-430 card (Becker–Hickl, Berlin, Germany) was used for the acquisition. Experiments were performed at 25°C using 5 µM Cq-FABP in buffer C. The average fluorescence lifetime values (τm), as reported in Table 1, were calculated from the lifetime distributions recovered by the maximum entropy method, [29], [32]. For example, Cq-FABP alone was characterized by three fluorescence lifetimes (τ1 = 0.6 ns (6%), τ2 = 2.67 ns (53%), τ3 = 3.89 (41%); τm = 3.04 ns).

Experiment [3] addresses T1, Cq-FABP. Description: BODIPY-C16 steady-state fluorescence anisotropy titration and competition. The following applies: for Kd: read-out: Kd,FA. As for the experimental part: The binding of 4,4-difluoro-5, 7-dimethyl-4-bora-3a, 4a-diaza-s-indacene-3-hexadecanoic acid (BODIPY-C16) to Cq-FABP was investigated by measuring the steady-state fluorescence anisotropy parameter using a Beacon instrument (PanVera, Madison, USA), in a cell thermostatically held at 25°C. The excitation and emission bandpass filters were centered at 488 nm (±6 nm) and 525 nm (±15 nm), respectively. Titration experiments were performed in buffer C (supplemented with 10% DMSO (v/v)) by maintening a constant concentration of BODIPY-C16 (200 nM) and by adding increasing concentrations of Cq-FABP. Using a vertical direction for the polarized excitation source, the steady-state fluorescence anisotropy (r) was calculated according to: [drawing 3] (3) where IV and IH correspond to the parallel (vertical) and perpendicular (horizontal) fluorescence emission intensity components, respectively. The fraction of BODIPY-C16/Cq-FABP complexes (i.e. the fraction of BODIPY-C16 bound to Cq-FABP), fb, was calculated using the following relationship: [drawing 4] (4) where r is the measured fluorescence anisotropy value, rf and rb correspond to the fluorescence anisotropy values of free BODIPY-C16 (ligand in the free state, measured in the absence of Cq-FABP) and Cq-FABP-bound BODIPY-C16 (ligand in the bound state, corresponding to the maximum anisotropy value found at the plateau), respectively. […] The Kd characterizing the BODIPY-C16/Cq-FABP complex (Kd,C16) was calculated by fitting the plot of fb versus [Cq-FABP] using the Graphpad Prism 5.0 software.
The fluorescence anisotropy-based assay was also used in competition experiments to calculate the Kd values (Kd,FA) characterizing non-fluorescent fatty acids. The measurement of the apparent Kd value characterizing the BODIPY-C16/Cq-FABP complex (Kd ^app ,C16) under different concentration conditions for the non-fluorescent FA allows the calculation of Kd,FA according to: [drawing 5] (5) where Kd,C16 corresponds to the Kd characterizing the BODIPY-C16/Cq-FABP complex (in the absence of any non-fluorescent FA) and Kd ^app ,C16 corresponds to the apparent dissociation constant obtained for a given concentration of non-fluorescent FA. The calculation of Kd,FA was also performed in an independent manner by measuring the IC50 value characterizing each non-fluorescent FA. In this approach, the number of complexes corresponding to [C16] = 200 nM and [Cq-FABP] = 5 µM was varied by increasing the concentration of non-fluorescent FA. The IC50 value corresponds to the concentration of non-fluorescent FA that displaces 50% of C16 from the fatty acid binding site of Cq-FABP and is related to Kd,FA through the Cheng-Prusoff relationship: [drawing 6] (6)
(In general: Fluorescence polarisation rises when a labelled molecule tumbles more slowly, as on binding a larger partner.)

Where [4] appears, read: 5 µM Cq-FABP + 50 µM ANS + 70 µM PA.
Where [5] appears, read: 5 µM Cq-FABP + 200 µM ANS + 70 µM PA.

T1 sequence (L0I6Z9 entry or part of it): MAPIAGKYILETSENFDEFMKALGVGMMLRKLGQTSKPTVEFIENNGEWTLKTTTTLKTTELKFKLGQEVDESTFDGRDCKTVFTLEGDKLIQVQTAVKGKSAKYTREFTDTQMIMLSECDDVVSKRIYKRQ

As to `CCCCCCCCCCCCCCCC(=O)O` [PA, Palmitic acid], the Kd is 830 nM in experiment [1] (FRET efficiency parameter, from slope of Kd app,PA versus [ANS] (Fig. 5B), average Kd,ANS 27.85 µM); 1900 nM in experiment [1] (FRET efficiency parameter, y-intercept of Kd app,PA versus [ANS] (Fig. 5B)); 1290 nM in experiment [1] (Trp fluorescence intensity parameter, from slope of Kd app,PA versus [ANS] (Fig. 5A), average Kd,ANS 27.85 µM); 1470 nM in experiment [1] (Trp fluorescence intensity parameter, y-intercept of Kd app,PA versus [ANS] (Fig. 5A)); 1150 ± 200 nM in experiment [3] (calculated from the IC50 values, using Eq. 6, 200 nM BODIPY-C16, 5 µM Cq-FABP); 1600 ± 300 nM in experiment [3] (calculated from the Kd app,C16 values, using Eq. 5, 200 nM BODIPY-C16). For the same compound, the “Average fluorescence Lifetime, τm” value is reported as 2.77 ns in experiment [2] (setting [4]), 2.96 ns in experiment [2] (5 µM Cq-FABP + 70 µM PA) and 2.34 ns in experiment [2] (setting [5]). The FRET efficiency in experiment [2] (setting [4]) was found to be 8.9%; in experiment [2] (setting [5]), 23%. Moreover, in experiment [3] (200 nM BODIPY-C16, 5 µM Cq-FABP, read-out: IC50 (displaces 50% of BODIPY-C16 from the fatty acid binding site)), the IC50 is 1170 nM.

These data come from PMC3528769, “Comparative Study of the Fatty Acid Binding Process of a New FABP from Cherax quadricarinatus by Fluorescence Intensity, Lifetime and Anisotropy” (PLoS ONE, 2012).
